Test results reported in the supplement of paper PMC10307832.

compound: C1=CC2=C(C=C(C(=C2N=C1)O)N=NC3=CC4=C(C=C3)C=C(C=C4)S(=O)(=O)O)S(=O)(=O)O + CS(=O)(=O)N1CCN(Cc2cc3nc(-c4cccc5[nH]ncc45)nc(N4CCOCC4)c3s2)CC1 [Pictilisib] (partner 1 µM); experiment: relative viability (nuclei count vs DMSO), 5 days (fraction); higher = more cells survive; details: first compound 0.08 µM
Outline: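 For relative viability, nuclei counts in treated wells were divided by those in vehicle wells. Lung cancer cell lines had been pin-tool dosed in 1536-well plates the day after seeding and cultured for 5 days, then fixed and stained in one step (final 0.05% Triton X-100, 1% formaldehyde, 1 ug/ml Hoechst) and imaged at 4×. Doses were one drug alone or a fixed anchor-drug dose plus five library-drug doses (not always all listed) in √10 steps, and values are duplicate-plate medians.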

Q: With LU99A as the cell line, how does the relative viability read?
A: 0.391

Q: With BEN as the cell line, how does the relative viability read?
A: 0.617

Q: For HARA, which relative viability is on record?
A: 0.356

Q: With HCC-78 as the cell line, how does the relative viability read?
A: 0.206

Q: NCI-H322M was tested. Which relative viability did it give?
A: 0.505

Q: NCI-H2009 was tested. Which relative viability did it give?
A: 0.789

Q: How did the relative viability turn out when A-427 was run?
A: 0.665

Q: Which relative viability does the source give for NCI-H661 here?
A: 0.372

Q: For NCI-H1734, which relative viability is on record?
A: 0.565

Q: NCI-H460 was tested. Which relative viability did it give?
A: 0.356

Q: NCI-H2347 was tested. Which relative viability did it give?
A: 0.651

Q: For SK-LU-1, which relative viability is on record?
A: 0.615

Q: How did the relative viability turn out when NCI-H1395 was run?
A: 0.667

Q: Which relative viability does the source give for 201T here?
A: 0.625

Q: Which relative viability does the source give for NCI-H1915 here?
A: 0.883

Q: HCC-827 was tested. Which relative viability did it give?
A: 1.09

Q: LXF-289 was tested. Which relative viability did it give?
A: 0.874

same assay, conditions: first compound 0.253 µM

Q: Calu-6 was tested. Which relative viability did it give?
A: 1.01

Q: With HCC-366 as the cell line, how does the relative viability read?
A: 0.139

Q: NCI-H1666 was tested. Which relative viability did it give?
A: 0.383

Q: For NCI-H596, which relative viability is on record?
A: 0.385

Q: LK-2 was tested. Which relative viability did it give?
A: 0.522

Q: With NCI-H2087 as the cell line, how does the relative viability read?
A: 0.863

Q: SK-MES-1 was tested. Which relative viability did it give?
A: 0.354

Q: How did the relative viability turn out when H3255 was run?
A: 0.462

Q: COR-L23 was tested. Which relative viability did it give?
A: 0.81

Q: Which relative viability does the source give for COR-L 105 here?
A: 0.362

Q: Which relative viability does the source give for IA-LM here?
A: 0.312

Q: With LOU-NH91 as the cell line, how does the relative viability read?
A: 0.523

Q: Which relative viability does the source give for NCI-H2170 here?
A: 0.4

Q: NCI-H2405 was tested. Which relative viability did it give?
A: 0.432

Q: For HOP-62, which relative viability is on record?
A: 0.707

Q: Which relative viability does the source give for HCC-44 here?
A: 0.636

Q: How did the relative viability turn out when A549 was run?
A: 0.449

Q: How did the relative viability turn out when LU99A was run?
A: 0.314

Q: For BEN, which relative viability is on record?
A: 0.564

Q: How did the relative viability turn out when HARA was run?
A: 0.471

Q: Which relative viability does the source give for HCC-78 here?
A: 0.178

Q: Which relative viability does the source give for NCI-H322M here?
A: 0.473

Q: LCLC-97TM1 was tested. Which relative viability did it give?
A: 0.239

Q: NCI-H2009 was tested. Which relative viability did it give?
A: 0.82

Q: For A-427, which relative viability is on record?
A: 0.731

Q: NCI-H661 was tested. Which relative viability did it give?
A: 0.345

Q: With NCI-H1734 as the cell line, how does the relative viability read?
A: 0.434

Q: Which relative viability does the source give for NCI-H460 here?
A: 0.366

Q: With NCI-H2347 as the cell line, how does the relative viability read?
A: 0.585

Q: Which relative viability does the source give for SK-LU-1 here?
A: 0.55

Q: Which relative viability does the source give for NCI-H1395 here?
A: 0.607

Q: 201T was tested. Which relative viability did it give?
A: 0.696

Q: How did the relative viability turn out when NCI-H1915 was run?
A: 0.97

Q: With HCC-827 as the cell line, how does the relative viability read?
A: 1.07

Q: With LXF-289 as the cell line, how does the relative viability read?
A: 0.684

same assay, conditions: first compound 0.8 µM

Q: How did the relative viability turn out when Calu-6 was run?
A: 0.955

Q: Which relative viability does the source give for HCC-366 here?
A: 0.165

Q: Which relative viability does the source give for NCI-H1666 here?
A: 0.358

Q: With NCI-H596 as the cell line, how does the relative viability read?
A: 0.377

Q: Which relative viability does the source give for LK-2 here?
A: 0.613

Q: NCI-H2087 was tested. Which relative viability did it give?
A: 0.77

Q: Which relative viability does the source give for SK-MES-1 here?
A: 0.376

Q: For H3255, which relative viability is on record?
A: 0.4

Q: With COR-L23 as the cell line, how does the relative viability read?
A: 0.692

Q: COR-L 105 was tested. Which relative viability did it give?
A: 0.379

Q: IA-LM was tested. Which relative viability did it give?
A: 0.283

Q: With LOU-NH91 as the cell line, how does the relative viability read?
A: 0.539

Q: NCI-H2170 was tested. Which relative viability did it give?
A: 0.312

Q: NCI-H2405 was tested. Which relative viability did it give?
A: 0.33

Q: HOP-62 was tested. Which relative viability did it give?
A: 0.651

Q: With HCC-44 as the cell line, how does the relative viability read?
A: 0.548

Q: With A549 as the cell line, how does the relative viability read?
A: 0.545

Q: Which relative viability does the source give for LU99A here?
A: 0.251

Q: For BEN, which relative viability is on record?
A: 0.493

Q: How did the relative viability turn out when HARA was run?
A: 0.384

Q: HCC-78 was tested. Which relative viability did it give?
A: 0.221

Q: With NCI-H322M as the cell line, how does the relative viability read?
A: 0.444

Q: For NCI-H2009, which relative viability is on record?
A: 0.757

Q: Which relative viability does the source give for A-427 here?
A: 0.629

Q: How did the relative viability turn out when NCI-H661 was run?
A: 0.359

Q: NCI-H1734 was tested. Which relative viability did it give?
A: 0.426

Q: For NCI-H460, which relative viability is on record?
A: 0.336

Q: With NCI-H2347 as the cell line, how does the relative viability read?
A: 0.541

Q: Which relative viability does the source give for SK-LU-1 here?
A: 0.57

Q: Which relative viability does the source give for NCI-H1395 here?
A: 0.578

Q: With 201T as the cell line, how does the relative viability read?
A: 0.649

Q: With NCI-H1915 as the cell line, how does the relative viability read?
A: 0.856

Q: HCC-827 was tested. Which relative viability did it give?
A: 0.801

Q: LXF-289 was tested. Which relative viability did it give?
A: 0.73

same assay, conditions: first compound 2.53 µM

Q: Calu-6 was tested. Which relative viability did it give?
A: 0.974

Q: With HCC-366 as the cell line, how does the relative viability read?
A: 0.219

Q: For NCI-H1666, which relative viability is on record?
A: 0.42

Q: For NCI-H596, which relative viability is on record?
A: 0.428

Q: How did the relative viability turn out when LK-2 was run?
A: 0.541

Q: For NCI-H2087, which relative viability is on record?
A: 0.945

Q: For SK-MES-1, which relative viability is on record?
A: 0.328

Q: How did the relative viability turn out when H3255 was run?
A: 0.49

Q: How did the relative viability turn out when COR-L23 was run?
A: 0.753

Q: COR-L 105 was tested. Which relative viability did it give?
A: 0.401

Q: For IA-LM, which relative viability is on record?
A: 0.347

Q: With LOU-NH91 as the cell line, how does the relative viability read?
A: 0.486

Q: With NCI-H2170 as the cell line, how does the relative viability read?
A: 0.306

Q: For NCI-H2405, which relative viability is on record?
A: 0.418

Q: For HOP-62, which relative viability is on record?
A: 0.723

Q: HCC-44 was tested. Which relative viability did it give?
A: 0.649

Q: How did the relative viability turn out when A549 was run?
A: 0.509

Q: LU99A was tested. Which relative viability did it give?
A: 0.297

Q: Which relative viability does the source give for BEN here?
A: 0.667

Q: For HARA, which relative viability is on record?
A: 0.38

Q: How did the relative viability turn out when HCC-78 was run?
A: 0.219

Q: With NCI-H322M as the cell line, how does the relative viability read?
A: 0.442

Q: With LCLC-97TM1 as the cell line, how does the relative viability read?
A: 0.149

Q: Which relative viability does the source give for NCI-H2009 here?
A: 0.747

Q: For A-427, which relative viability is on record?
A: 0.672

Q: With NCI-H661 as the cell line, how does the relative viability read?
A: 0.517

Q: For NCI-H1734, which relative viability is on record?
A: 0.492

Q: NCI-H460 was tested. Which relative viability did it give?
A: 0.344

Q: NCI-H2347 was tested. Which relative viability did it give?
A: 0.657

Q: Which relative viability does the source give for SK-LU-1 here?
A: 0.61

Q: How did the relative viability turn out when NCI-H1395 was run?
A: 0.575

Q: For 201T, which relative viability is on record?
A: 0.695

Q: Which relative viability does the source give for NCI-H1915 here?
A: 0.95

Q: Which relative viability does the source give for HCC-827 here?
A: 1.02

Q: Which relative viability does the source give for LXF-289 here?
A: 0.793

same assay, conditions: first compound 8 µM

Q: Which relative viability does the source give for Calu-6 here?
A: 0.838

Q: With HCC-366 as the cell line, how does the relative viability read?
A: 0.203

Q: NCI-H1666 was tested. Which relative viability did it give?
A: 0.479

Q: NCI-H596 was tested. Which relative viability did it give?
A: 0.417

Q: LK-2 was tested. Which relative viability did it give?
A: 0.552

Q: Which relative viability does the source give for NCI-H2087 here?
A: 0.909

Q: For SK-MES-1, which relative viability is on record?
A: 0.377

Q: With H3255 as the cell line, how does the relative viability read?
A: 0.439

Q: COR-L23 was tested. Which relative viability did it give?
A: 0.857

Q: COR-L 105 was tested. Which relative viability did it give?
A: 0.4

Q: IA-LM was tested. Which relative viability did it give?
A: 0.322

Q: With LOU-NH91 as the cell line, how does the relative viability read?
A: 0.524

Q: For NCI-H2170, which relative viability is on record?
A: 0.308

Q: How did the relative viability turn out when NCI-H2405 was run?
A: 0.28

Q: How did the relative viability turn out when HOP-62 was run?
A: 0.691

Q: HCC-44 was tested. Which relative viability did it give?
A: 0.766

Q: For A549, which relative viability is on record?
A: 0.322

Q: With LU99A as the cell line, how does the relative viability read?
A: 0.37

Q: For BEN, which relative viability is on record?
A: 0.48

Q: Which relative viability does the source give for HARA here?
A: 0.707

Q: HCC-78 was tested. Which relative viability did it give?
A: 0.118

Q: NCI-H322M was tested. Which relative viability did it give?
A: 0.524

Q: For LCLC-97TM1, which relative viability is on record?
A: 0.222

Q: How did the relative viability turn out when NCI-H2009 was run?
A: 0.761

Q: A-427 was tested. Which relative viability did it give?
A: 0.709

Q: NCI-H661 was tested. Which relative viability did it give?
A: 0.353

Q: Which relative viability does the source give for NCI-H1734 here?
A: 0.455

Q: For NCI-H460, which relative viability is on record?
A: 0.104

Q: NCI-H2347 was tested. Which relative viability did it give?
A: 0.683

Q: With SK-LU-1 as the cell line, how does the relative viability read?
A: 0.621

Q: For NCI-H1395, which relative viability is on record?
A: 0.602

Q: With 201T as the cell line, how does the relative viability read?
A: 0.72

Q: With NCI-H1915 as the cell line, how does the relative viability read?
A: 0.952

Q: Which relative viability does the source give for HCC-827 here?
A: 0.992

Q: How did the relative viability turn out when LXF-289 was run?
A: 0.8

compound: C1=CC2=C(C=C(C(=C2N=C1)O)N=NC3=CC4=C(C=C3)C=C(C=C4)S(=O)(=O)O)S(=O)(=O)O; experiment: relative viability (nuclei count vs DMSO), 5 days (fraction); higher = more cells survive; details: 0.08 µM
Outline: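 Viability was read as treated-well nuclei divided by vehicle-well nuclei, using the median across plates. Lung cancer cell lines in 1536-well plates were kept overnight at 37 °C, pinned with five √10-spaced library-drug doses, and after 5 days were Hoechst-stained, imaged at 4× and counted in MetaXpress. Plates passed only with control CV below 25% and at least one doubling.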

Q: Calu-6 was tested. Which relative viability did it give?
A: 1
